Assay results: US12263139B2, “Use of cannabidiol in the treatment of tuberous sclerosis complex” (Jazz Pharmaceuticals Research UK Limited, priority 2017, dated 2025)

What was measured:
[1] = system: Miapaca; assay: Drug combination assay (MTT, CalcuSyn) of Rad001 and CBD in Miapaca; assay type: cell-based, Homo sapiens
Description: For the study of the synergism between Rad001 and CBD on pancreatic cell lines Miapaca was tested, the cells were seeded in 96-multiwell plates at the density of 3.8 10^3 cells/well. After 24 hr incubation at 37° C., the cells were treated with different concentrations of Rad001 and CBD. Different molar ratios between two drugs in different sequences of administration were tested, (Rad001 for 48 h and CBD for 72 h or Rad001 for 72 h and CBD for 48 h and in co-administration for 72 h.
The proliferative response was estimated by colorimetric 3-(4,5 di-methylthiazol-2-yl)-2,5-diphenyltetrazolium bromide (MIT) test. MTT conversion to formazan by metabolically viable cells was monitored by spectrophotometer at an optical density of 570 nm. Each data point represents the average of three separate experiments with each experiment containing four wells. Drug combination studies were based on concentration-effect curves generated as a plot of the fraction of unaffected (surviving) cells versus drug concentration after treatment.
To explore the relative contribution of each agent to the synergism equi-active doses of […] were tested (IC50). Assessment of synergy was performed quantitating drug interaction by Calcusyn computer program (Biosoft, Ferguson, MO). Combination index (CI) values of <1, 1, and >1 indicate synergy, additivity and antagonism, respectively.
Dose reduction index (DRI) representing the measure of how much the dose of each drug in a combination may be reduced at a given effect level compared with the doses of each drug alone.
The effects of the pharmacological combination between CBD and RAD001 on the proliferation MIAPACA cell lines, using MTT assay were studied. The data obtained were processed with dedicated program, CalcuSyn (Chou and Talalay, Biosoft, Oregon, USA), which measures synergism.
The specific contribution of CBD and Rad001 on the cytotoxic effect of the combination of drugs was analyzed by calculating the potentiation factor (PF) defined as the ratio of the IC50 of either CBD or Rad001 alone to the IC50 of CBD and Rad001 in combination. A higher PF indicates a greater cytotoxicity.

[2] = stomatitis, infections, rash, fatigue, diarrhoea, oedema, abdominal pain, nausea, fever, asthenia, cough, headache, decreased appetite; cited from earlier work

CO[C@H]1C[C@@H]2CC[C@@H](C)[C@@](O)(O2)C(=O)C(=O)N2CCCC[C@H]2C(=O)O[C@H]([C@H](C)C[C@@H]2CC[C@@H](OCCO)[C@H](OC)C2)CC(=O)[C@H](C)/C=C(\C)[C@@H](O)[C@@H](OC)C(=O)[C@H](C)C[C@H](C)/C=C/C=C/C=C/1C [Rad001, Everolimus, reference compound]
IC50 ([1]; Homo sapiens, MIA PaCa-2, Miapaca, 50% effect level, read-out: Dose of drug alone): 2600 nM | DRI50 ([1]; Miapaca, Rad/CBD combination, dose reduction index): Rad 2.1 | potentiation factor (PF) ([1]; ratio of IC50 alone to IC50 of CBD and Rad001 in combination): 4 | incidence of most common adverse reactions [2]: ≥ 30%
